Counter-ions that a name gives are not always drawn. Activity calls are given as the source filed them. No cut-off for these calls is given here.
Key:
HeLa = assay: Antiproliferative activity against human HeLa cells assessed as reduction in cell viability measured after 72 hrs; type: functional, cell-based
MCF7 = assay: cells; conditions: Homo sapiens, MCF7, 72 h
Description: Antiproliferative activity against human MCF7 cells assessed as reduction in cell viability measured after 72 hrs

K562 = assay: Antiproliferative activity against human K562 cells assessed as reduction in cell viability measured after 72 hrs; type: functional, cell-based; conditions: K562, 72 h
HCT-116 = assay: cells; conditions: Homo sapiens, HCT-116, 72 h
Description: Antiproliferative activity against human HCT-116 cells assessed as reduction in cell viability measured after 72 hrs

MOLM-13 = assay: Antiproliferative activity against human MOLM-13 cells assessed as reduction in cell viability measured after 72 hrs; type: functional, cell-based; conditions: MOLM-13, 72 h
Tubulin (Homo sapiens) [1] = target: T1, Tubulin (Homo sapiens) (UniProt P68371+Q9H4B7+P0DPH7+P68366+Q13509+Q71U36+P04350+Q3ZCM7+P07437+P68363+Q9BQE3+Q6PEY2+Q13885+Q9BVA1+Q9BUF5); assay: Induction of tubulin degradation in human HeLa cells measured after 24 hrs by immunoblot analysis; type: cell-based; conditions: dose <= 50.0 µM
Tubulin (Homo sapiens) [2] = target: T1, Tubulin (Homo sapiens); assay: Induction of tubulin degradation in human HeLa cells at 50 uM measured after 24 hrs by immunoblot analysis; type: cell-based
NCI/ADR-RES = assay: Antiproliferative activity against human MCF7ADR cells assessed as reduction in cell viability measured after 72 hrs; type: functional, cell-based

| IC50 (HeLa) | IC50 (MCF7) | IC50 (K562) | IC50 (HCT-116) | IC50 (MOLM-13) | Activity (Tubulin (Homo sapiens) [1]) | Activity (Tubulin (Homo sapiens) [2]) | Compound | IC50 (NCI/ADR-RES) |
| --- | --- | --- | --- | --- | --- | --- | --- | --- |
| 60 nM | 40 nM | 70 nM | 30 nM | 30 nM | – | – | COc1cccc(-c2cc(NCc3ccc(OC)c(OC)c3)nc(N)n2)c1 | – |
| > 2000 nM | > 2000 nM | > 2000 nM | > 2000 nM | > 2000 nM | – | – | COc1ccc(-c2cc(NCc3ccc4c(c3)OCO4)nc(N)n2)cc1OC | – |
| 230 nM | 220 nM | 330 nM | 210 nM | 170 nM | – | – | COc1cccc(-c2cc(N3CCc4cc(OC)c(OC)cc4C3)nc(N)n2)c1 | – |
| > 2000 nM | > 2000 nM | 740 nM | 1050 nM | 1010 nM | – | – | Nc1nc(NCc2ccc3c(c2)OCO3)cc(-c2cccc(OCc3ccccc3)c2)n1 | – |
| 90 nM | 690 nM | 100 nM | 520 nM | 190 nM | – | – | COc1cccc(-c2cc(NCc3ccc4c(c3)OCO4)nc(N)n2)c1 | – |
| 440 nM | 360 nM | 320 nM | 160 nM | 120 nM | – | – | COc1cccc(-c2cc(NCc3cccc(F)c3)nc(N)n2)c1 | – |
| 610 nM | 620 nM | 350 nM | 450 nM | 220 nM | – | – | COc1cccc(-c2cc(NCc3cc(F)cc(F)c3)nc(N)n2)c1 | – |
| > 2000 nM | > 2000 nM | > 2000 nM | > 2000 nM | > 2000 nM | – | – | CC(=O)c1cccc(-c2cc(NCc3ccc4c(c3)OCO4)nc(N)n2)c1 | – |
| > 2000 nM | > 2000 nM | > 2000 nM | > 2000 nM | > 2000 nM | – | – | CC(C)c1cccc(-c2cc(NCc3ccc4c(c3)OCO4)nc(N)n2)c1 | – |
| 440 nM | 850 nM | 270 nM | 920 nM | 360 nM | Dose-Dependent Effect | – | COc1cccc(-c2cc(NCc3ccccc3)nc(N)n2)c1 | – |
| 170 nM | 450 nM | 150 nM | 420 nM | 200 nM | – | – | Cc1ccc(-c2cc(NCc3ccc4c(c3)OCO4)nc(N)n2)cc1 | – |
| 30800 nM | 22800 nM | 8630 nM | 15800 nM | 12500 nM | Dose-Dependent Effect | Active | COc1cccc(-c2cc(NCc3ccc4c(c3)OCO4)ncn2)c1 | – |
| 180 nM | 1210 nM | 70 nM | 390 nM | 110 nM | – | – | Nc1nc(NCc2ccc3c(c2)OCO3)cc(-c2ccc3c(c2)OCO3)n1 | – |
| > 2000 nM | > 2000 nM | 1820 nM | 1670 nM | > 2000 nM | – | – | Nc1nc(NCc2ccc3c(c2)OCO3)cc(-c2ccc3ccccc3c2)n1 | – |
| > 2000 nM | > 2000 nM | > 2000 nM | > 2000 nM | > 2000 nM | – | – | Cn1cc2c(-c3cc(NCc4ccc5c(c4)OCO5)nc(N)n3)cccc2n1 | – |
| > 2000 nM | > 2000 nM | > 2000 nM | > 2000 nM | > 2000 nM | – | – | Nc1nc(NCc2ccc3c(c2)OCO3)cc(-c2ccncc2)n1 | – |
| 910 nM | > 2000 nM | 280 nM | 1010 nM | 560 nM | – | – | Nc1nc(NCc2ccc3c(c2)OCO3)cc(-c2ccoc2)n1 | – |
| 48600 nM | 26500 nM | 19300 nM | 37500 nM | 20200 nM | inactive | inactive | COc1cccc(-c2cc(N)nc(NCc3ccc4c(c3)OCO4)c2)c1 | – |
| 110 nM | 60 nM | 60 nM | 97 nM | 60 nM | – | – | C=CCN(Cc1ccc2c(c1)OCO2)c1cc(-c2cccc(OC)c2)nc(N)n1 | – |
| > 2000 nM | > 2000 nM | > 2000 nM | > 2000 nM | > 2000 nM | – | – | CC1(C)c2ccccc2-c2ccc(-c3cc(NCc4ccc5c(c4)OCO5)nc(N)n3)cc21 | – |
| > 2000 nM | > 2000 nM | > 2000 nM | > 2000 nM | > 2000 nM | – | – | CCOc1ccc(-c2cc(NCc3ccc4c(c3)OCO4)nc(N)n2)cc1 | – |
| 330 nM | 280 nM | 280 nM | 160 nM | 110 nM | – | – | COc1cccc(-c2cc(NCc3cc(OC)c(OC)c(OC)c3)nc(N)n2)c1 | – |
| > 2000 nM | > 2000 nM | > 2000 nM | > 2000 nM | > 2000 nM | – | – | CC(C)(C)c1ccc(-c2cc(NCc3ccc4c(c3)OCO4)nc(N)n2)cc1 | – |

| IC50 (HeLa) | IC50 (MCF7) | IC50 (K562) | IC50 (HCT-116) | IC50 (MOLM-13) | Activity (Tubulin (Homo sapiens) [1]) | Activity (Tubulin (Homo sapiens) [2]) | Compound | IC50 (NCI/ADR-RES) |
| --- | --- | --- | --- | --- | --- | --- | --- | --- |
| 20 nM | 60 nM | 40 nM | 60 nM | 30 nM | Dose-Dependent Effect | – | CCN(Cc1ccc2c(c1)OCO2)c1cc(-c2cccc(OC)c2)nc(N)n1 | – |
| > 2000 nM | > 2000 nM | > 2000 nM | > 2000 nM | > 2000 nM | – | – | CC(=O)Nc1cccc(-c2cc(NCc3ccc4c(c3)OCO4)nc(N)n2)c1 | – |
| > 2000 nM | > 2000 nM | > 2000 nM | > 2000 nM | > 2000 nM | – | – | COc1cc(-c2cc(NCc3ccc4c(c3)OCO4)nc(N)n2)cc(OC)c1OC | – |
| 500 nM | 960 nM | 250 nM | 770 nM | 220 nM | – | – | Nc1nc(NCc2ccc3c(c2)OCO3)cc(-c2cccc3ccccc23)n1 | – |
| 120 nM | 640 nM | 20 nM | 300 nM | 90 nM | – | – | Nc1nc(NCc2ccc3c(c2)OCO3)cc(-c2ccc3c(c2)CCN3)n1 | – |
| 290 nM | 290 nM | 320 nM | 130 nM | 130 nM | – | – | COc1cccc(-c2cc(NCc3ccc4ccccc4c3)nc(N)n2)c1 | – |
| 20 nM | 120 nM | 40 nM | 35 nM | 30 nM | – | – | COc1cccc(-c2cc(N(C)Cc3ccc4c(c3)OCO4)nc(N)n2)c1 | – |
| > 2000 nM | > 2000 nM | > 2000 nM | > 2000 nM | > 2000 nM | – | – | CC(C)c1ccc(-c2cc(NCc3ccc4c(c3)OCO4)nc(N)n2)cc1 | – |
| 460 nM | 1910 nM | 140 nM | 910 nM | 250 nM | Dose-Dependent Effect | – | Nc1nc(NCc2ccc3c(c2)OCO3)cc(-c2ccccc2)n1 | – |
| 520 nM | 650 nM | 170 nM | 710 nM | 240 nM | – | – | Nc1nc(NCc2ccc3c(c2)OCO3)cc(-c2ccc3c(c2)OCCO3)n1 | – |
| > 2000 nM | > 2000 nM | > 2000 nM | > 2000 nM | > 2000 nM | – | – | N#Cc1cccc(-c2cc(NCc3ccc4c(c3)OCO4)nc(N)n2)c1 | – |
| 360 nM | 540 nM | 120 nM | 180 nM | 130 nM | – | – | COc1cccc(-c2cc(NCc3ccc(F)cc3F)nc(N)n2)c1 | – |
| 200 nM | 1250 nM | 120 nM | 820 nM | 190 nM | – | – | COc1ccc(-c2cc(NCc3ccc4c(c3)OCO4)nc(N)n2)cn1 | – |
| > 2000 nM | > 2000 nM | > 2000 nM | > 2000 nM | > 2000 nM | – | – | Nc1nc(NCc2ccc3c(c2)OCO3)cc(-c2cccc(-c3ccccc3)c2)n1 | – |
| 280 nM | 530 nM | 300 nM | 550 nM | 360 nM | – | – | CN(C)c1cccc(-c2cc(NCc3ccc4c(c3)OCO4)nc(N)n2)c1 | – |
| 80 nM | 110 nM | 80 nM | 110 nM | 80 nM | – | – | CCCN(Cc1ccc2c(c1)OCO2)c1cc(-c2cccc(OC)c2)nc(N)n1 | – |
| 180 nM | 350 nM | 60 nM | 330 nM | 60 nM | – | – | COc1cc(OC)cc(-c2cc(NCc3ccc4c(c3)OCO4)nc(N)n2)c1 | – |
| 430 nM | 590 nM | 260 nM | 260 nM | 280 nM | – | – | COc1cccc(-c2cc(NCc3ccc(OC(F)(F)F)cc3)nc(N)n2)c1 | – |
| > 2000 nM | > 2000 nM | > 2000 nM | > 2000 nM | > 2000 nM | – | – | Nc1nc(NCc2ccc3c(c2)OCO3)cc(-c2ccc(-c3ccccc3)cc2)n1 | – |
| – | – | – | – | – | – | – | COc1cccc2c1C(=O)c1c(O)c3c(c(O)c1C2=O)C[C@@](O)(C(=O)CO)C[C@@H]3O[C@H]1C[C@H](N)[C@H](O)[C@H](C)O1 [DOXORUBICIN HYDROCHLORIDE] | 8630 nM |
| > 2000 nM | > 2000 nM | > 2000 nM | > 2000 nM | > 2000 nM | – | – | Nc1nc(NCc2ccc3c(c2)OCO3)cc(-c2ccc(F)cc2)n1 | – |
| > 2000 nM | > 2000 nM | > 2000 nM | > 2000 nM | > 2000 nM | – | – | Nc1nc(NCc2ccc3c(c2)OCO3)cc(-c2ccc(Oc3ccccc3)cc2)n1 | – |
| 120 nM | 620 nM | 130 nM | 520 nM | 120 nM | – | – | COc1ccc(CNc2cc(-c3cccc(OC)c3)nc(N)n2)cc1 | – |

From ChEMBL document CHEMBL5543108, “Structure-based design and synthesis of BML284 derivatives: A novel class of colchicine-site noncovalent tubulin degradation agents” (Eur J Med Chem, 2024)
